This is an account of results in US11807852B2, “Compositions and methods for reactivating latent immunodeficiency virus” (The J. David Gladstone Institutes, a testamentary trust …, priority 2014, dated 2023).

“Also recorded” adds a separate entry of the source. Like-named read-outs stand apart in the source and are kept apart here.

For one data set, the target named is SMYD2 (Homo sapiens, UniProt Q9NRG4). Conditions: cited from earlier work.
The conditions of data set [1]: cited from earlier work.
In data set [2] the test system is J-Lat cells (clone A2: LTR-Tat-IRES-GFP). The class given is cell-based. Conditions: A2 J-Lat cells, single agent. Here is the method: To test this hypothesis, J-Lat cells (clone A2: LTR-Tat-IRES-GFP) were treated with SMYD2 inhibitors. […] Both cell lines were co-treated with X2 and Ingenol 3,20-dibenzoate (a protein kinase C (PKC) activator), JQ1 (BET-bromodomain inhibitor), or the histone deacetylase (HDAC) inhibitor suberoylanilidehydroxamic acid (SAHA).

Data set [3] relates to J-Lat A72 cell line (LTR-GFP). On the procedure:
J-Lat (clones A2 and A72) cell lines were cultured as described in Jordan et al., EMBO J. 2003 Apr. 15:22(8):1868-77. Human αCD3/αCD28 beads (Life Technologies) were used at a concentration of 1 bead/cell ratio. JQ1 (Sigma-Aldrich) was used at a concentration of 0.1-10 μM. Ingenol 3,20-dibenzoate (Sigma-Aldrich) was used at concentrations of 5-200 nM, and SAHA (Sigma-Aldrich) was used at concentrations of 110 nM, 330 nM, or 1 μM.
HEK293T cells were obtained from the American Type Culture Collection. J-Lat (clones A2, A72, and 5A8) cell lines were described (Chan et al., 2013; Jordan et al., 2003). HEK293T cells were cultured in DMEM supplemented with 10% FBS, 1% L-glutamine and 1% penicillin-streptomycin (Life Technologies). J-Lat cells were cultured in RPMI supplemented with 10% FBS, 1% L-glutamine and 1% penicillin-streptomycin (Life Technologies). […] TNFα (Sigma-Aldrich) was used at 0.5-10 ng/ml. Human αCD3/αCD28 Dynabeads (Invitrogen) were used at a 1 bead/cell ratio. JQ1 (Cayman Chemical) was used at 0.1-10 μM. Ingenol 3,20-dibenzoate (Santa Cruz Biotechnology) was used at 5-200 nM, and SAHA (Merck) was used at 110 nM, 330 nM, or 1 μM. Phorbol 12-myristate 13-acetate (PMA) (Sigma) was used at 10 nM and ionomycin (Sigma) was used at a concentration of 500 nM. UNC926 (Tocris Bioscience) was used at a concentration of 10 nM-100 μM. AZ505. AZ506, and AZ391 were used at a concentration of 10 nM-10 μM.
ShRNA-expressing lentiviral vectors were purchased from Sigma-Aldrich. The pLKO.1 vector containing a scrambled shRNA was used as control. […] J-Lat 5A8, A72 and A2 cells were spininfected with virus (1 ng of p24 per 10^6 cells) containing shRNAs against KMTs or nontargeting control shRNAs and were selected with puronycin (2 μg/ml: Sigma). After 7 days of selection, cells were treated with the indicated concentration of drugs. The percentage of GFP^+ cells was determined after 18 h using a MACSQuant VYB FACS analyzer (Miltenyi Biotech GmbH). Cell viability was monitored by forward-and-side scatter analysis. Analysis was conducted on 3×10,000 live cells per condition. Data were analyzed using FlowJo 9.5 (Tree Star).

The next data set deals with T1, L3MBTL1 (Homo sapiens, UniProt Q9Y468).
T1 sequence (Q9Y468 1-840): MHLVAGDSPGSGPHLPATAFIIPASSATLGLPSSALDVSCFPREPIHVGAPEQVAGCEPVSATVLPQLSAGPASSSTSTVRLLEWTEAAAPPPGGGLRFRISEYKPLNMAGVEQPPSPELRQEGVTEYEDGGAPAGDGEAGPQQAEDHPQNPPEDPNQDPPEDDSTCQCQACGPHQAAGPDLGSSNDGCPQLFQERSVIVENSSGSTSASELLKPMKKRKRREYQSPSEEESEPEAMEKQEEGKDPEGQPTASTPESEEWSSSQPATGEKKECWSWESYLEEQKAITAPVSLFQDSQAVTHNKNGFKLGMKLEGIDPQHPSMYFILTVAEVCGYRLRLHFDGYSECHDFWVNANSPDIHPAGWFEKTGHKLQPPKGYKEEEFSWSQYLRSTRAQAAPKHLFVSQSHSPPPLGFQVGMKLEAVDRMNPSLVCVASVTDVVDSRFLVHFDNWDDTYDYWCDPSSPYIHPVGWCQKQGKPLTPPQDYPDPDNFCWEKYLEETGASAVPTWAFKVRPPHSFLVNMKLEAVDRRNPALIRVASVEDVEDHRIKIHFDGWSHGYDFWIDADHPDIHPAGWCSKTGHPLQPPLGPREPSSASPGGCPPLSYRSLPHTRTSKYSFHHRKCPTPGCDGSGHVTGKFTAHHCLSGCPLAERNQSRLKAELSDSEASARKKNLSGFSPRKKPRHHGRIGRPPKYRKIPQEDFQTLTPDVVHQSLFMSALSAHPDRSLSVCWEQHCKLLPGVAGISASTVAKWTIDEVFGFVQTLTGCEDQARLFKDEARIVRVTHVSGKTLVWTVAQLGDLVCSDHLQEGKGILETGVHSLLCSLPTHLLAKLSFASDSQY
The note with it: cited from earlier work.

For the next data set, the system named is J-Lat 5A8 cells. Kind of data set: SMYD5 shRNA knockdown in J-Lat 5A8 cells (qPCR, GFP flow cytometry). The data set is classed as cell-based. The note with it: for SMYD5 knockdown efficiency by qPCR: J-Lat 5A8 cells; for reactivation of viral latency (GFP) after CD3/28 antibody stimulation: suboptimal, medium or saturating doses, 24 hours. Here is the method:
ShRNA-expressing lentiviral vectors were purchased from Sigma-Aldrich. The plasmids TRCN000155095 (Target sequence: […]) (SEQ ID NO:76) and TRCN0000156306 (Target sequence: […]) (SEQ ID NO:77) were used to deplete SMYD5. The pLKO. I vector containing a scrambled shRNA was used as control. […]; 272:263-7), and titered for p24 content. […] Data were analyzed using FlowJo 9.5 (Tree Star).
RNA was isolated using RNeasy Plus Mini Kit (Qiagen) and reverse-transcribed using SuperScript III Reverse Transcriptase (Invitrogen) as per the manufacturer's instructions. Quantitative RT-PCR was carried out using Maxima SYBR Green qPCR Master Mix (Thermo Scientific) on SDS 2.4 software (Applied Biosystems) in a total volume of 12 μL. Primer efficiencies were around 100%. Dissociation curve analysis was performed after the end of the PCR to confirm the presence of a single and specific product.
To confirm results from the shRNA screen, SMYD5 was individually knocked down in J-Lat 5A8 cells. Cells were transduced with lentiviral vectors expressing two different shRNAs targeting SMYD5 or a scrambled control shRNA, followed by puromycin treatment to select successfully transduced cells. The shRNA knockdown was confirmed using qPCR and failed for #1 and was ˜50% effective for #2 (FIG. 26A). Cells were then stimulated with suboptimal, medium, or saturating doses of CD3/28 antibodies or were left unstimulated for 24 hours, followed by flow cytometry of GFP. […] To test effects of SMYD5 on basal HIV-1 transcription we analyzed RNAs from nonactivated control and SMYD5 knockdown cells with primers specific for the viral LTR; mRNAs for SMYD5 and the NF-κB factor p65 were used as controls (FIG. 26D). SMYD5 knockdown reduced basal HIV-1 transcription by ˜50% mirroring the knockdown efficiency of shRNA #2 (FIG. 26D). In independent experiments to investigate the biological role of SMYD5 during HIV transcription, HeLa cells were transfected with an HIV LTR luciferase construct and expression vectors for Tat and SMYD5. Overexpression of SMYD5 marked activation of a co-transfected viral LTR-luciferase reporter construct was observed (FIGS. 28A and 28B). To identify the target for SMYD5 in HIV-1 infection, we performed in vitro methylation assays with recombinant SMYD5 on purified human histones, Tat (aa 1-72) [SEQ ID NO. 39], NF-κB, RelA, Sp1, and P-TEFb components cyclin T1 and CDK9. Reactions included 3H-SAM and were performed with or without recombinant SMYD5 enzyme. After gel electrophoresis, coomassie staining and autoradiography no methylation was detected for RelA, Sp1, cyclin T1 and CDK9 (FIG. 27). However, histones H3 and H1 were weakly and Tat strongly methylated by SMYD5 (FIG. 27). To map the site of methylation in Tat, we performed in vitro methylation reactions using non-radiolabeled SAM and subjected them to reversed-phase liquid chromatography electrospray tandem mass spectrometry (LC-MS/MS). This analysis identified a single site, trimethylation of K41, identified in two distinct peptides (not shown). No mono or dimethylation at Tat K41 was observed.
In general terms: Quantitative PCR measures a nucleic acid by following its amplification.

Chain of SMYD2 (Q9NRG4 whole entry): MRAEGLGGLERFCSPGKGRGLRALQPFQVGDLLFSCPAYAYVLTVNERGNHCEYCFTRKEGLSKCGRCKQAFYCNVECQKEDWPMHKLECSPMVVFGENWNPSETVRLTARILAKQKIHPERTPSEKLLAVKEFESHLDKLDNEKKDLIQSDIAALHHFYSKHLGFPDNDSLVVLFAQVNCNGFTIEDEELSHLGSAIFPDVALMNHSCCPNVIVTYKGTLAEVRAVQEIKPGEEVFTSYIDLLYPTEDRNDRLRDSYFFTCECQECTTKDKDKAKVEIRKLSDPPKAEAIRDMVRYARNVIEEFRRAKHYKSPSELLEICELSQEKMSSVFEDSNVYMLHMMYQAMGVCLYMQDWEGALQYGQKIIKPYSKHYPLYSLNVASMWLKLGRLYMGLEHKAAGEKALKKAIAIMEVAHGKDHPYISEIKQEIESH

On to `O=C1COc2c(CCNCCN(C(=O)CCNCCc3ccc(Cl)c(Cl)c3)C3CCCCC3)ccc(O)c2N1` [AZ505, N-cyclohexyl-3-((3,4-dichlorophenethyl)amino)-N-(2-((2-(5-hydroxy-3-oxo-3,4-dihydro-2H-benzo[b][1,4]oxazin-8-yl)ethyl)amino)ethyl)propanamide bis(2,2,2-trifluoroacetate), reference compound], for which the “Kd compared with the p53 peptide” value on SMYD2 is “approximately sevenfold lower than the p53 peptide”. Also, in data set [1] (bis(2,2,2-trifluoroacetate)), the cell permeability entry is recorded as “lack of cell permeability; also recorded: not cell-penetrable”. Moreover, the “activation of HIV transcription / reactivation of the HIV-LTR (GFP)” value in data set [2] was “failure of AZ505 to effectively activate HIV transcription”.

With `O=C(NCCCN1CCCC1)c1cncc(-c2ccccc2N2CCN(CCc3c[nH]c4ccccc34)CC2)c1` [AZ506], the cell permeability entry in data set [1] was “cell-permeable”. Also, the “activation of GFP expression / reactivation of the HIV-LTR” value in data set [3] (A72 J-Lat cells, single agent) is “activated GFP expression at high concentrations”.

As to UNC926 [reference compound], on L3MBTL1, the Kd (in general, a measure of binding affinity in units of concentration) was 3.9 µM. Also, in data set [3] (A72, 10 nM-100 μM, without or with 0.1 ng/ml TNFα, 18 h), the “concentration at which activation is observed” value came to 100 µM. For the same compound, the “viability by forward-side scatter analysis” value in data set [3] (A72, up to 100 μM, 18 h) is listed as “No effect on viability”. In addition, the basal transcriptional activity result in data set [3] (A72 J-Lat cells) is listed as “a doubling in basal transcriptional activity”.

For the compound “shRNA #1: lentiviral shRNA targeting SMYD5 (SEQ ID NO:74) (CCGGGCTATGGGAATTACAACCCATCTCGAGATGGGTTGTAATTCCCATAGCTTTTTTG)”, in the data set on J-Lat 5A8 cells, the “SMYD5 knockdown efficiency by qPCR” value is “failed” and the “reactivation of viral latency (GFP) after CD3/28 antibody stimulation” value is “had no effect”.

On to “shRNA #2: lentiviral shRNA targeting SMYD5 (SEQ ID NO:75) (CCGGCTGTGACACTCTGGAGTTGAACTCGAGTTCAACTCCAGAGTGTCACAGTTTTTTG)”, for which, in the data set with J-Lat 5A8 cells, the “SMYD5 knockdown efficiency by qPCR” value was about 50% and the “reactivation of viral latency (GFP) after CD3/28 antibody stimulation” value is listed as “suppressed reactivation of viral latency”. In addition, the “reduction of basal HIV-1 transcription (viral LTR RNA, RT-qPCR)” value in the data set on J-Lat 5A8 cells (nonactivated cells) was about 50%.
